Measured values taken from patent publication US20070231921A1, “Method and system for determining whether a drug will be effective on a patient with a disease” (priority 2006, published 2007).

Legend:
[1] = test system: Non-Small-Cell Lung Cancer; assay: Response rate of Iressa in Japanese NSCLC patients, without and with filtering by the serum mass spectrometer test; format: in vivo, human; details: Japanese population
Procedure: Continuing with FIG. 3, step 312, learning may be utilized in generating classifiers for a training set of spectra. In the case of sampling serum for detecting whether an anti-cancer drug will be effective on non-small-cell lung cancer, control groups of patients were utilized, including using three sets of patients whose cancer progressed following chemotherapy. Each of the patients was treated with Iressa and information, including survival times, of these patients was recorded. […] Each data set represents the cancer research center from which spectra and associated patient information was received.
TABLE III is a summary of the data set attributes used in a study to determine whether a classifier algorithm could be effective in determining whether a cancer patient would be responsive to Iressa. Data sets Italian 1, Italian 2, Japan 1, and Japan 2 were treated with Iressa following sample collection. Training and testing in the development phase was done crosswise from the Italian 1 sets and the two Japanese sets. The patient data included survival data, where the Italian set had very complete patient history together with treatment and cancer type, the Japanese sets only included prognostic information relating to the WHO definitions of clinical labels, including stable disease (SD), progressive disease (PD), and partial responders (PR) measured by CT imaging. […]

[2] = test system: Non-Small-Cell Lung Cancer; details: NSCLC patients in Asia, compared with Caucasian populations; cited from earlier work

COc1cc2ncnc(Nc3ccc(F)c(Cl)c3)c2cc1OCCCN1CCOCC1 [Iressa, gefitinib]
response rate of Iressa ([1]; after serum based mass spectrometer test filters non-responders from responders): 90% | response rate of Iressa ([1]; before filtering non-responders from responders): 65% | response rate [2]: considerably higher
